Experimental data published in the NIST ThermoML archive (doi:10.1016/j.jct.2011.12.035).

Assay: xn = mol fraction of the nth substance listed
Settings: Gas, Buoyancy - hydrostatic balance with magnetic suspension - one sinker

N#N [nitrogen] + O=C=O
Settings | mass density [kg/m3]
324.98 K, 10004 kPa, x2 = 0.501 | 153.908
324.98 K, 11001 kPa, x2 = 0.501 | 171.162
324.98 K, 12005 kPa, x2 = 0.501 | 188.662
324.98 K, 13008 kPa, x2 = 0.501 | 206.25
324.98 K, 14011 kPa, x2 = 0.501 | 223.826
324.98 K, 14991 kPa, x2 = 0.501 | 240.922
324.98 K, 16018 kPa, x2 = 0.501 | 258.66
324.98 K, 17012 kPa, x2 = 0.501 | 275.602
324.98 K, 18018 kPa, x2 = 0.501 | 292.404
324.98 K, 19023 kPa, x2 = 0.501 | 308.813
324.98 K, 19436 kPa, x2 = 0.501 | 315.426
349.95 K, 1995.5 kPa, x2 = 0.2 | 21.523
349.95 K, 3995.9 kPa, x2 = 0.2 | 43.283
349.95 K, 5996.5 kPa, x2 = 0.2 | 65.117
349.95 K, 7996.2 kPa, x2 = 0.2 | 86.91
349.95 K, 9978.8 kPa, x2 = 0.2 | 108.381
349.95 K, 11996 kPa, x2 = 0.2 | 129.976
349.95 K, 13995 kPa, x2 = 0.2 | 151.019
349.95 K, 15999 kPa, x2 = 0.2 | 171.67
349.95 K, 17993 kPa, x2 = 0.2 | 191.695
349.95 K, 19820 kPa, x2 = 0.2 | 209.531
349.96 K, 983.48 kPa, x2 = 0.501 | 12.303
349.96 K, 1988.3 kPa, x2 = 0.501 | 25.152
349.96 K, 2996.4 kPa, x2 = 0.501 | 38.326
349.96 K, 3997 kPa, x2 = 0.501 | 51.667
349.96 K, 4995.9 kPa, x2 = 0.501 | 65.24
349.96 K, 5996.2 kPa, x2 = 0.501 | 79.074
349.96 K, 6995.9 kPa, x2 = 0.501 | 93.129
349.96 K, 7995.5 kPa, x2 = 0.501 | 107.379
349.96 K, 8996.2 kPa, x2 = 0.501 | 121.83
349.96 K, 9996.3 kPa, x2 = 0.501 | 136.421
349.96 K, 10998 kPa, x2 = 0.501 | 151.155
349.96 K, 11997 kPa, x2 = 0.501 | 165.911
349.96 K, 12998 kPa, x2 = 0.501 | 180.741
349.96 K, 14000 kPa, x2 = 0.501 | 195.573
349.96 K, 14998 kPa, x2 = 0.501 | 210.29
349.96 K, 15995 kPa, x2 = 0.501 | 224.908
349.96 K, 16996 kPa, x2 = 0.501 | 239.453
349.96 K, 17996 kPa, x2 = 0.501 | 253.79
349.96 K, 18997 kPa, x2 = 0.501 | 267.945
349.96 K, 19977 kPa, x2 = 0.501 | 281.556
374.94 K, 981.92 kPa, x2 = 0.2 | 9.845
374.94 K, 1992.4 kPa, x2 = 0.2 | 19.995
374.94 K, 3995.7 kPa, x2 = 0.2 | 40.155
374.94 K, 5995.1 kPa, x2 = 0.2 | 60.236
374.94 K, 7995.3 kPa, x2 = 0.2 | 80.217
374.94 K, 9993 kPa, x2 = 0.2 | 99.987
374.94 K, 11990 kPa, x2 = 0.2 | 119.489
374.94 K, 13988 kPa, x2 = 0.2 | 138.676
374.94 K, 16023 kPa, x2 = 0.2 | 157.817
374.94 K, 17847 kPa, x2 = 0.2 | 174.574
374.94 K, 19903 kPa, x2 = 0.2 | 192.989
374.95 K, 987.06 kPa, x2 = 0.501 | 11.492
374.95 K, 1987.8 kPa, x2 = 0.501 | 23.329
374.95 K, 2995.7 kPa, x2 = 0.501 | 35.439
374.95 K, 3994.8 kPa, x2 = 0.501 | 47.603
374.95 K, 4993.3 kPa, x2 = 0.501 | 59.918
374.95 K, 5994.6 kPa, x2 = 0.501 | 72.415
374.95 K, 6995 kPa, x2 = 0.501 | 85.031
374.95 K, 8053.6 kPa, x2 = 0.501 | 98.499
374.95 K, 8965.3 kPa, x2 = 0.501 | 110.186
374.95 K, 9995.9 kPa, x2 = 0.501 | 123.471
374.95 K, 10995 kPa, x2 = 0.501 | 136.416
374.95 K, 11992 kPa, x2 = 0.501 | 149.335
374.95 K, 12992 kPa, x2 = 0.501 | 162.294
374.95 K, 13995 kPa, x2 = 0.501 | 175.285
374.95 K, 14994 kPa, x2 = 0.501 | 188.172
374.95 K, 15990 kPa, x2 = 0.501 | 200.942
374.95 K, 16990 kPa, x2 = 0.501 | 213.677
374.95 K, 17988 kPa, x2 = 0.501 | 226.253
374.95 K, 19119 kPa, x2 = 0.501 | 240.354
374.95 K, 19941 kPa, x2 = 0.501 | 250.44
400.01 K, 996.68 kPa, x2 = 0.2 | 9.356
400.01 K, 1978.2 kPa, x2 = 0.2 | 18.57
400.01 K, 3994 kPa, x2 = 0.2 | 37.452
400.01 K, 5994.7 kPa, x2 = 0.2 | 56.097
400.01 K, 7993.8 kPa, x2 = 0.2 | 74.576
400.01 K, 9990.6 kPa, x2 = 0.2 | 92.826
400.01 K, 11990 kPa, x2 = 0.2 | 110.835
400.01 K, 13987 kPa, x2 = 0.2 | 128.512
400.01 K, 15981 kPa, x2 = 0.2 | 145.821
400.01 K, 17979 kPa, x2 = 0.2 | 162.772
400.01 K, 19979 kPa, x2 = 0.2 | 179.326
400.02 K, 975.89 kPa, x2 = 0.501 | 10.626
400.02 K, 1987.6 kPa, x2 = 0.501 | 21.767
400.02 K, 2995.6 kPa, x2 = 0.501 | 32.992
400.02 K, 3980.9 kPa, x2 = 0.501 | 44.058
400.02 K, 4993.2 kPa, x2 = 0.501 | 55.527
400.02 K, 5994.2 kPa, x2 = 0.501 | 66.95
400.02 K, 6991.4 kPa, x2 = 0.501 | 78.405
400.02 K, 7992.4 kPa, x2 = 0.501 | 89.956
400.02 K, 8994.6 kPa, x2 = 0.501 | 101.571
400.02 K, 9979.8 kPa, x2 = 0.501 | 113.018
400.02 K, 10987 kPa, x2 = 0.501 | 124.751
400.02 K, 11986 kPa, x2 = 0.501 | 136.359
400.02 K, 12984 kPa, x2 = 0.501 | 147.944
400.02 K, 13986 kPa, x2 = 0.501 | 159.545
400.02 K, 14984 kPa, x2 = 0.501 | 171.05
400.02 K, 15985 kPa, x2 = 0.501 | 182.526
400.02 K, 16984 kPa, x2 = 0.501 | 193.894
400.02 K, 17965 kPa, x2 = 0.501 | 204.97
400.02 K, 18983 kPa, x2 = 0.501 | 216.347
400.02 K, 19960 kPa, x2 = 0.501 | 227.147
